Patent publication US12428455B2, “Dominant negative CEBPB and CEBPD proteins and methods of use for decreasing viability of neoplastic cells” (The Trustees of Columbia University in the City of New York, priority 2018, dated 2025)
No end group written: not given here.

What was measured:
Type in all cases: cell-based
T98G cells [1] = experiment: Combination with paclitaxel, cell number, T98G; conditions: 1 nM or 5 nM paclitaxel and 3, 10 or 20 μM peptide, 6 days
Experimental: Replicate cultures of T98G, MDA-MB 231, and MCF7 cells were treated with 1 nM or 5 nM paclitaxel and 3 μM, 10 μM, or 20 μM CP-dn-CEBPB and CP-dn-CEBPD peptides, maintained for 6 days, and then assessed for cell number. The bar graphs of FIGS. 26A (T98G, CP-dn-CEBPB), 26C (T98G, CP-dn-CEBPBD, 26E (MDA-MB-231, CP-dn-CEBPBD), 26G (MDA-MB-231, CP-dn-CEBPD), 26I (MCF7, CP-dn-CEBPBB), and 26K (MCF7, CP-dn-CEBPBD) show relative cell numbers for each condition as compared to untreated controls. The line graphs of FIGS. 26B (T98G, CP-dn-CEBPB), 26D (T98G, CP-dn-CEBPBD), 26F (MDA-MB-231, CP-dn-CEBPB), 26H (MDA-MB-231, CP-dn-CEBPD), 26J (MCF7, CP-dn-CEBPB), and 26L (MCF7 CP-dn-CEBPBD) show the response as normalized in each case so that 100 represents the relative number of surviving cells that received the indicated level of paclitaxel, but no peptide treatment. Calculated combination indices (CI) were as follows: MCF7: CI=0.41±0.04 for CP-dn-CEBPB; 0.44±0.04 for CP-dn-CEBPD; MDA-MB-231: 0.74±0.03 for CP-dn-CEBPB; 0.74±0.05 for CP-dn-CEBPD; T98G: CI=0.84±0.06 for CP-dn-CEBPB and 0.75±0.07 for CP-dn-CEBPD.

HCT116 cells = experiment: Colony forming activity in soft agar, HCT116; conditions: 6 days; doses 0.05, 0.5 and 5 μM
Experimental: (§1) T98G (FIG. 21A), MDA-MB 231 (FIG. 21B), and HCT116 (FIG. 21C) cells were exposed to CP-DN-CEBPB and CP-DN-CEBPD for 6 days at doses of 0.05 μM 0.5 μM, and 5 μM while growing in soft agar. Growth was inhibited by does as low as 0.5 μM. T98G (FIG. 21D), MDA-MB 231 (FIG. 21E), and HCT116 (FIG. 21F) cells were exposed to CP-DN-CEBPB and CP-DN-CEBPD for 6 days at doses of 0.05 μM 0.5 μM, and 5 μM while growing on culture plates. Growth was inhibited by does as low as 0.5 μM.

BMF transcripts = experiment: qPCR for BMF transcripts; conditions: 20 μM, 3 days; T98G, MDA-MB-231, MCF7, A375 and HCT116 cells
Experimental: T98G, MDA-MB-231, MCF7, A375, and HCT116 cells were treated with or without 20 μM CP-dn-CEBPB or CP-dn-CEBPD for 3 days and then assessed by qPCR for relative levels of BMF transcripts (FIG. 35A, T98G; FIG. 35B, MDA-MB-231; FIG. 35C, MCF7; FIG. 35D, A375; FIG. 35E, HCT116).

T98G cells [2] = experiment: Colony forming activity on culture plates, T98G; conditions: 6 days; doses 0.05, 0.5 and 5 μM
Experimental: as §1

MCF7 cells = experiment: Apoptotic nuclei, propidium iodide flow cytometry, MCF7; conditions: 20 μM, 3 days, vs untreated cells
Experimental: MDA-MB-231, MCF7, HCT116 and T98G cancer cell lines were treated for 3 days with 20 μM CP-dn-CEBPB and CP-dn-CEBPD peptides from stock solutions prepared without additives. Cultures were stained with propidium iodide and assessed for proportion of cells with apoptotic nuclei by flow cytometry.

T98G glioblastoma cells = experiment: Cell number (growth and survival) after peptide treatment, T98G; conditions: for growth and survival of T98G cells, time course: 10 μM or 20 μM for 1-6 days; for growth and survival of T98G cells, time course / number of T98G cells / morphology, growth and survival of T98G cells: stock without BSA; for number of T98G cells: 6-7 days; for number of T98G cells / effect of BSA in stock buffer on potency in suppressing growth and survival: 0 μM to 50 μM; for morphology, growth and survival of T98G cells: 5 days, 10 or 20 μM (CP-DN-CEBPB), 3, 10, 20 or 50 μM (CP-DN-CEBPD); for effect of BSA in stock buffer on potency in suppressing growth and survival: 6 days, BSA 3 mg/ml in stock, 0.6 mg/ml in medium
Experimental: Replicate T98G glioblastoma cell cultures were exposed to dominant negative (DN) synthetic peptides having an N-terminal penetratin sequence followed by a CEBPB or CEBPD native leucine zipper sequence (CP-DN-CEBPB or CP-DN-CEBPD, respectively) for 5 days at final concentrations of 10 μM or 20 μM (CP-DN-CEBPB) or 3 μM, 10 μM, 20 μM or 50 μM (CP-DN-CEBPD). Stock solutions of the peptides were prepared in buffer without added bovine serum albumin (BSA).
Replicate T98G glioblastoma cell cultures were exposed to CP-DN-CEBPB or CP-DN-CEBPD, for 6-7 days at doses of 0 μM to 50 μM. […] Stock solutions of the peptides were prepared in buffer without added bovine serum albumin (BSA).
Replicate T98G cell cultures were exposed to CP-DN-CEBPB or CP-DN-CEBPD peptides (10 μM or 20 μM) for 1, 2, 3, 4, 5, or 6 days. […] Values shown in FIG. 7A and FIG. 7B represent means from 3 replicate cultures. Stock solutions of the peptides were prepared in buffer without added bovine serum albumin (BSA).
Four replicate cultures of T98G cells were treated for 6 days with a cell penetrating dominant negative CEBPB (CP-DN-CEBPB; FIG. 8A) or a cell penetrating dominant negative CEBPD (CP-DN-CEBPD; FIG. 8B) at doses of 0 μM to 50 μM, with or without bovine serum albumin (BSA). […] Concentration of BSA in the stock solution, when present, was 3 mg/ml. The final concentration of BSA in the cell culture medium was 0.6 mg/ml. Values represent means of determinations made on 4 replicate cultures for each condition.
Replicate cultures of HCT116, MDA-MB 231, MCF7, and T98G cells were exposed to a 50/50 by concentration mixture of CP-DN-CEBPB and CP-DN-CEBPD for 6 days at doses of 0 μM to 50 μM. Stock solutions of the peptides were prepared in buffer without added bovine serum albumin (BSA).
Replicate cultures of T98G, HCT116, MDA-MB 231, and MCF7 cells were exposed to CP-DN-CEBPB, CP-DN-CEBPD, or a CP-DN-CEBPD in which heptad repeat leucine residues were mutated to glycine residues for 6 days at doses of 0 μM to 50 μM. Stock solutions of the peptides were prepared in buffer without added bovine serum albumin (BSA).

Sequence | combination index (CI) with paclitaxel (T98G cells [1]) | lowest dose at which growth was inhibited, soft agar (HCT116 cells) [µM] | relative levels of BMF transcripts (BMF transcripts) | lowest dose at which growth was inhibited, culture plates (T98G cells [2]) [µM] | proportion of cells with apoptotic nuclei (MCF7 cells) | growth and survival of T98G cells, time course (T98G glioblastoma cells) | number of T98G cells (T98G glioblastoma cells) | morphology, growth and survival of T98G cells (T98G glioblastoma cells) | effect of BSA in stock buffer on potency in suppressing growth and survival (T98G glioblastoma cells)
RQIKIWFQNRRMKWKKLETQHKVLELTAENERLQKKVEQLSRELSTLRNLFKQL [CP-DN-CEBPB] | 0.84±0.06 | 0.5 | upregulate pro-apoptotic BMF | 0.5 | increased apoptotic cell death | decreased as compared to untreated control cells | dose-responsively decreased | dose-responsively affected the morphology, growth and survival | greatly increased the potency
RQIKIWFQNRRMKWKKLVELSAENEKLHQRVEQLTRDLAGLRQFFK [CP-DN-CEBPD] | 0.75±0.07 | 0.5 | upregulate pro-apoptotic BMF | 0.5 | increased apoptotic cell death | decreased as compared to untreated control cells | dose-responsively decreased | dose-responsively affected the morphology, growth and survival | greatly increased the potency
